pEC50: −log10 of the molar value.
Each compound was assayed against T1, GLP-1R (Homo sapiens, UniProt P43220) (assay: GLP-1R activation cAMP assay (Assay 1 or Assay 2)). Conditions: cAMP increase in CHO cells stably expressing GLP-1R; compounds run on one of the two cAMP assays.
T1 construct: host or cells: CHO cells
T1 sequence (P43220 24-463): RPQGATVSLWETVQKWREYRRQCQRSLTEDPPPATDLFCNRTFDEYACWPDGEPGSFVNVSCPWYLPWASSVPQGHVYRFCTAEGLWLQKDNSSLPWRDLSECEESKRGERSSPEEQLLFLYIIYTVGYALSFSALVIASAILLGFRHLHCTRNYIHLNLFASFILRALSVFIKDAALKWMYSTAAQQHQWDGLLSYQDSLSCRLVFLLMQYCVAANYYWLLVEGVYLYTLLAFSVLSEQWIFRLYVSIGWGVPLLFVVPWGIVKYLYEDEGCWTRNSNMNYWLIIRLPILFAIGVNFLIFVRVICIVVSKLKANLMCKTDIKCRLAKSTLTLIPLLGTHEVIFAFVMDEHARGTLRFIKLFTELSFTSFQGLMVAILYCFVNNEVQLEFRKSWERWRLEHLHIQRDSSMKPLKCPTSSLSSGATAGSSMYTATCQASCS
Format: cell-based
How it was run: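 CHO cells stably expressing human GLP-1R were incubated 1 h in HBSS/20 mM HEPES/0.1% BSA, then exposed to 10-point agonist dilutions for 30 min at 37 °C. cAMP increase was measured with an HTRF Gs dynamic kit; EC50 from sigmoidal fit of response versus log concentration.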
In the case of O=C(O)c1ccc2nc(Cc3cc(F)c(-c4cccc(OCc5ncc(C#Cc6ccc(F)cc6)cc5F)n4)cc3F)n(C[C@@H]3CCO3)c2c1 [Example 284, (S)-2-(2,5-difluoro-4-(6-((3-fluoro-5-((4-fluorophenyl)ethynyl)pyridin-2-yl)methoxy)pyridin-2-yl)benzyl)-1-(oxetan-2-ylmethyl)-1H-benzo[d]imidazole-6-carboxylic acid], the pEC50 was 9.74. For O=C(O)c1ccc2nc(Cc3cc(F)c(-c4cccc(OCc5ncc(C#Cc6cnsc6)cc5F)n4)cc3F)n(C[C@@H]3CCO3)c2c1 [Example 285, (S)-2-(2,5-difluoro-4-(6-((3-fluoro-5-(isothiazol-4-ylethynyl)pyridin-2-yl)methoxy)pyridin-2-yl)benzyl)-1-(oxetan-2-ylmethyl)-1H-benzo[d]imidazole-6-carboxylic acid], the pEC50 was 9.90. In the case of O=C(O)c1ccc2nc(Cc3cc(F)c(-c4cccc(OCc5ncc(C#Cc6cn[nH]c6)cc5F)n4)cc3F)n(C[C@@H]3CCO3)c2c1 [Example 286, (S)-2-(4-(6-((5-((1H-pyrazol-4-yl)ethynyl)-3-fluoropyridin-2-yl)methoxy)pyridin-2-yl)-2,5-difluorobenzyl)-1-(oxetan-2-ylmethyl)-1H-benzo[d]imidazole-6-carboxylic acid], the pEC50 was 10.38. O=C(O)c1ccc2nc(Cc3cc(F)c(-c4cccc(OCc5ccc(C#Cc6cnn(C(F)F)c6)cc5F)n4)cc3F)n(C[C@@H]3CCO3)c2c1 [Example 287, (S)-2-(4-(6-((4-((1-(difluoromethyl)-1H-pyrazol-4-yl)ethynyl)-2-fluorobenzyl)oxy)pyridin-2-yl)-2,5-difluorobenzyl)-1-(oxetan-2-ylmethyl)-1H-benzo[d]imidazole-6-carboxylic acid] was tested, and the pEC50 was 9.73. With Cn1nncc1C#Cc1cnc(COc2cccc(-c3cc(F)c(Cc4nc5ccc(C(=O)O)cc5n4C[C@@H]4CCO4)cc3F)n2)c(F)c1 [Example 288, (S)-2-(2,5-difluoro-4-(6-((3-fluoro-5-((1-methyl-1H-1,2,3-triazol-5-yl)ethynyl)pyridin-2-yl)methoxy)pyridin-2-yl)benzyl)-1-(oxetan-2-ylmethyl)-1H-benzo[d]imidazole-6-carboxylic acid] the pEC50 was 10.17. Cc1cc(C#Cc2cnn(C)c2)cnc1COc1cccc(-c2cc(F)c(Cc3nc4ccc(C(=O)O)cc4n3C[C@@H]3CCO3)cc2F)n1 [Example 289, (S)-2-(2,5-difluoro-4-(6-((3-methyl-5-((1-methyl-1H-pyrazol-4-yl)ethynyl)pyridin-2-yl)methoxy)pyridin-2-yl)benzyl)-1-(oxetan-2-ylmethyl)-1H-benzo[d]imidazole-6-carboxylic acid] was tested, and the pEC50 was 9.58. For Cc1nnc(COc2cccc(-c3cc(F)c(Cc4nc5ccc(C(=O)O)cc5n4[C@@H]4COCC4(C)C)cc3F)n2)s1 [Example 290, (S)-2-(2,5-difluoro-4-(6-((5-methyl-1,3,4-thiadiazol-2-yl)methoxy)pyridin-2-yl)benzyl)-1-(4,4-dimethyltetrahydrofuran-3-yl)-1H-benzo[d]imidazole-6-carboxylic acid], the pEC50 was 9.81. For Cc1nc(C#Cc2cnc(COc3cccc(-c4cc(F)c(Cc5nc6ccc(C(=O)O)cc6n5C[C@@H]5CCO5)cc4F)n3)c(F)c2)cs1 [Example 291, (S)-2-(2,5-difluoro-4-(6-((3-fluoro-5-((2-methylthiazol-4-yl)ethynyl)pyridin-2-yl)methoxy)pyridin-2-yl)benzyl)-1-(oxetan-2-ylmethyl)-1H-benzo[d]imidazole-6-carboxylic acid], the pEC50 was 9.16. Work on O=C(O)c1ccc2nc(Cc3cc(F)c(-c4cccc(OCc5ncc(C#Cc6cscn6)cc5F)n4)cc3F)n(C[C@@H]3CCO3)c2c1 [Example 292, (S)-2-(2,5-difluoro-4-(6-((3-fluoro-5-(thiazol-4-ylethynyl)pyridin-2-yl)methoxy)pyridin-2-yl)benzyl)-1-(oxetan-2-ylmethyl)-1H-benzo[d]imidazole-6-carboxylic acid] yielded a pEC50 of 9.30. Cn1cncc1C#Cc1cnc(COc2cccc(-c3cc(F)c(Cc4nc5ccc(C(=O)O)cc5n4C[C@@H]4CCO4)cc3F)n2)c(F)c1 [Example 293, (S)-2-(2,5-difluoro-4-(6-((3-fluoro-5-((1-methyl-1H-imidazol-5-yl)ethynyl)pyridin-2-yl)methoxy)pyridin-2-yl)benzyl)-1-(oxetan-2-ylmethyl)-1H-benzo[d]imidazole-6-carboxylic acid] gave a pEC50 of 9.74. COc1ncc(C#Cc2cnc(COc3cccc(-c4cc(F)c(Cc5nc6ccc(C(=O)O)cc6n5C[C@@H]5CCO5)cc4F)n3)c(F)c2)s1 [Example 294, (S)-2-(2,5-difluoro-4-(6-((3-fluoro-5-((2-methoxythiazol-5-yl)ethynyl)pyridin-2-yl)methoxy)pyridin-2-yl)benzyl)-1-(oxetan-2-ylmethyl)-1H-benzo[d]imidazole-6-carboxylic acid] was tested, and the pEC50 was 9.74. In the case of Cn1cc(C#Cc2ccc(COc3nc(-c4cc(F)c(Cc5nc6c(F)cc(C(=O)O)cc6n5C[C@@H]5CCO5)cc4F)ccc3F)cn2)cn1 [Example 295, (S)-2-(2,5-difluoro-4-(5-fluoro-6-((6-((1-methyl-1H-pyrazol-4-yl)ethynyl)pyridin-3-yl)methoxy)pyridin-2-yl)benzyl)-4-fluoro-1-(oxetan-2-ylmethyl)-1H-benzo[d]imidazole-6-carboxylic acid], the pEC50 was 9.69. For Cn1cc(C#Cc2cnc(COc3nc(-c4cc(F)c(Cc5nc6c(F)cc(C(=O)O)cc6n5C[C@@H]5CCO5)cc4F)ccc3F)c(F)c2)cn1 [Example 296, (S)-2-(2,5-difluoro-4-(5-fluoro-6-((3-fluoro-5-((1-methyl-1H-pyrazol-4-yl)ethynyl)pyridin-2-yl)methoxy)pyridin-2-yl)benzyl)-4-fluoro-1-(oxetan-2-ylmethyl)-1H-benzo[d]imidazole-6-carboxylic acid], the pEC50 was 10.44. Cc1nnc(COc2nc(-c3cc(F)c(Cc4nc5c(F)cc(C(=O)O)cc5n4C[C@@H]4CCO4)cc3F)ccc2F)s1 [Example 297, (S)-2-(2,5-difluoro-4-(5-fluoro-6-((5-methyl-1,3,4-thiadiazol-2-yl)methoxy)pyridin-2-yl)benzyl)-4-fluoro-1-(oxetan-2-ylmethyl)-1H-benzo[d]imidazole-6-carboxylic acid] gave a pEC50 of 9.29. COCc1nnc(COc2cccc(-c3cc(F)c(Cc4nc5ccc(C(=O)O)cc5n4C[C@@H]4CCO4)cc3F)n2)s1 [Example 298, (S)-2-(2,5-difluoro-4-(6-((5-(methoxymethyl)-1,3,4-thiadiazol-2-yl)methoxy)pyridin-2-yl)benzyl)-1-(oxetan-2-ylmethyl)-1H-benzo[d]imidazole-6-carboxylic acid] showed a pEC50 of 9.33. Compound CCc1nnc(COc2cccc(-c3cc(F)c(Cc4nc5ccc(C(=O)O)cc5n4C[C@@H]4CCO4)cc3F)n2)s1 [Example 299, (S)-2-(4-(6-((5-ethyl-1,3,4-thiadiazol-2-yl)methoxy)pyridin-2-yl)-2,5-difluorobenzyl)-1-(oxetan-2-ylmethyl)-1H-benzo[d]imidazole-6-carboxylic acid] has a pEC50 of 8.58. With Cn1cc(C#Cc2cc(Cl)c(COc3cccc(-c4cc(F)c(Cc5nc6ccc(C(=O)O)cc6n5C[C@@H]5CCO5)cc4F)n3)cn2)cn1 [Example 300, (S)-2-(4-(6-((4-chloro-6-((1-methyl-1H-pyrazol-4-yl)ethynyl)pyridin-3-yl)methoxy)pyridin-2-yl)-2,5-difluorobenzyl)-1-(oxetan-2-ylmethyl)-1H-benzo[d]imidazole-6-carboxylic acid] the pEC50 was 9.08. Cn1cc(C#Cc2ccc(COc3cccc(-c4cc(F)c(Cc5nc6ccc(C(=O)O)cc6n5C[C@@H]5CCO5)cc4F)n3)c(F)c2)nn1 [Example 301, (S)-2-(2,5-difluoro-4-(6-((2-fluoro-4-((1-methyl-1H-1,2,3-triazol-4-yl)ethynyl)benzyl)oxy)pyridin-2-yl)benzyl)-1-(oxetan-2-ylmethyl)-1H-benzo[d]imidazole-6-carboxylic acid] gave a pEC50 of 9.47. Compound Cn1cc(C#Cc2cnc(COc3cccc(-c4cc(F)c(Cc5nc6ccc(C(=O)O)cc6n5C[C@@H]5CCO5)cc4F)n3)c(Cl)c2)cn1 [Example 302, (S)-2-(4-(6-((3-chloro-5-((1-methyl-1H-pyrazol-4-yl)ethynyl)pyridin-2-yl)methoxy)pyridin-2-yl)-2,5-difluorobenzyl)-1-(oxetan-2-ylmethyl)-1H-benzo[d]imidazole-6-carboxylic acid] has a pEC50 of 9.25. O=C(O)c1ccc2nc(Cc3cc(F)c(-c4cccc(OCc5ncc(C#Cc6cncs6)cc5F)n4)cc3F)n(C[C@@H]3CCO3)c2c1 [Example 303, (S)-2-(2,5-difluoro-4-(6-((3-fluoro-5-(thiazol-5-ylethynyl)pyridin-2-yl)methoxy)pyridin-2-yl)benzyl)-1-(oxetan-2-ylmethyl)-1H-benzo[d]imidazole-6-carboxylic acid] was tested, and the pEC50 was 9.60. In the case of COc1cc(C#Cc2cnn(C)c2)ccc1COc1cccc(-c2cc(F)c(Cc3nc4ccc(C(=O)O)cc4n3C[C@@H]3CCO3)cc2F)n1 [Example 304, (S)-2-(2,5-difluoro-4-(6-((2-methoxy-4-((1-methyl-1H-pyrazol-4-yl)ethynyl)benzyl)oxy)pyridin-2-yl)benzyl)-1-(oxetan-2-ylmethyl)-1H-benzo[d]imidazole-6-carboxylic acid], the pEC50 was 9.28. Cc1ncc(C#Cc2ccc(COc3cccc(-c4cc(F)c(Cc5nc6ccc(C(=O)O)cc6n5C[C@@H]5CCO5)cc4F)n3)cc2)cn1 [Example 305, (S)-2-(2,5-difluoro-4-(6-((4-((2-methylpyrimidin-5-yl)ethynyl)benzyl)oxy)pyridin-2-yl)benzyl)-1-(oxetan-2-ylmethyl)-1H-benzo[d]imidazole-6-carboxylic acid] gave a pEC50 of 9.52. Cn1cc(C#Cc2ccc(COc3cccc(-c4cc(F)c(Cc5nc6ccc(C(=O)O)cc6n5C[C@@H]5CCO5)cc4F)n3)cc2)cn1 [Example 306, (S)-2-(2,5-difluoro-4-(6-((4-((1-methyl-1H-pyrazol-4-yl)ethynyl)benzyl)oxy)pyridin-2-yl)benzyl)-1-(oxetan-2-ylmethyl)-1H-benzo[d]imidazole-6-carboxylic acid] showed a pEC50 of 9.21.
